Reference: publication PMC5011342, “A high throughput drug screening assay to identify compounds that promote oligodendrocyte differentiation using acutely dissociated and purified oligodendrocyte precursor cells” (BMC Research Notes, 2016)
Read-outs that look alike come from different tables or passages of the source.

Experiments:
expanded OPCs = assay: cells; settings: for viability at 0.1 µM / viability at 1 µM / viability at 10 µM: Rattus norvegicus, 72 h; for 0.1 µM (% DMSO) / 1 µM (% DMSO) / 10 µM (% DMSO): alamarBlue viability of expanded OPCs; for 0.1 µM (% DMSO): compound at 0.1 µM; for 1 µM (% DMSO): compound at 1 µM; for 10 µM (% DMSO): compound at 10 µM
How it was run: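 Expanded OPCs seeded at 10,000 cells/well in differentiation media, then exposed to NCC library compounds at 10, 1 and 0.1 µM (quadruplicate, 0.1% DMSO) for three days. Viability read as alamarBlue fluorescence (560/590 nm) after 4 h at 37 °C; tunicamycin 5 ng/ml served as toxicity control.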

[1] = tested on: acutely dissociated and purified rat OPCs; assay: Acute OL differentiation assay (MBP expression/cell, immunofluorescent image quantification); type: cell-based
How it was run: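 Oligodendrocyte precursor cells were enriched from P6-P7 Sprague–Dawley rat brains by immunopanning (RAN-2 and GalC depletion, O4 selection), plated at 5000 cells/well in serum-free, mitogen-free differentiation media on PDL/laminin 96-well view plates, centrifuged at 200×g, and pre-incubated 1–2 h before test compounds were added in quadruplicate. On DIV4, cells were fixed, stained for MBP and DAPI, imaged automatically, and MBP expression per cell was quantified.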

[2] = read-out: 0.1 µM (% DMSO), alamarBlue viability of expanded OPCs, compound at 0.1 µM, sheet All Tox data
[3] = read-out: 1 µM (% DMSO), alamarBlue viability of expanded OPCs, compound at 1 µM, sheet All Tox data
[4] = read-out: 10 µM (% DMSO), alamarBlue viability of expanded OPCs, compound at 10 µM, sheet All Tox data
[5] = Rattus norvegicus, 2 uM test compound, relative to quetiapine, sheet "All OLga data", read-out: OL differentiation, 2 uM (% Quet)
[6] = Rattus norvegicus, 10 uM test compound, relative to quetiapine, sheet "All OLga data", read-out: OL differentiation, 10 uM (% Quet)
[7] = Rattus norvegicus, test compound at 0.4 uM, NCC library screen, sheet "All OLga data", relative to quetiapine, read-out: 0.4 uM (% Quet)
[8] = Rattus norvegicus, test compound at 2 uM, NCC library screen, sheet "All OLga data", relative to quetiapine, read-out: 2 uM (% Quet)
[9] = Rattus norvegicus, test compound at 2 uM, MBP expression relative to quetiapine, NCC library screen, sheet "All OLga data", read-out: 2 uM (% Quet)
[10] = Rattus norvegicus, test compound at 10 uM, MBP expression relative to quetiapine, NCC library screen, sheet "All OLga data", read-out: 10 uM (% Quet)
[11] = Rattus norvegicus, test compound at 10 uM, NCC library screen, sheet "All OLga data", relative to quetiapine, read-out: 10 uM (% Quet)

SMILES	viability at 0.1 µM (expanded OPCs; [2])	viability at 1 µM (expanded OPCs; [3])	viability at 10 µM (expanded OPCs; [4])	activation at 2 µM [1, 5]	activation at 10 µM [1, 6]	0.1 µM (% DMSO) (expanded OPCs; relative to DMSO control)	1 µM (% DMSO) (expanded OPCs; relative to DMSO control)	10 µM (% DMSO) (expanded OPCs; relative to DMSO control)	also measured
CC(COc1ccccc1Cc1ccccc1)N1CCCCC1 (centres unmarked) [Benproperine, reference compound]	105%	123%	20.9%	99.4%					activation at 0.4 µM ([1]; Rattus norvegicus, 0.4 uM test compound, relative to quetiapine, sheet "All OLga data", read-out: OL differentiation, 0.4 uM (% Quet)): 82.1%; EC50 ([1]; Rattus norvegicus, average EC50 for induction of OL differentiation from independent biological replicates, eight concentrations): 800 nM; hit in OL differentiation assay, MRF-TMC ([1]; ● = confirmed hit in this paper's assay): ●
COc1ccc2c3c1O[C@H]1C[C@@H](O)C=C[C@@]31CCN(C)C2 [Galantamine]	86.2%	81.7%	81.5%	14.9%	16.4%				
C[C@H]1CCC[C@H](O)CCCCCc2cc(O)cc(O)c2C(=O)O1 [Zeranol]	83.6%	85.8%	69.3%	-37.2%	-51.9%				
O=c1c(O[C@@H]2O[C@H](CO)[C@@H](O)[C@H](O)[C@H]2O)c(-c2ccc(O)c(O)c2)oc2cc(O)cc(O)c12 [Isoquercitrin]	85.5%	92.9%	101%	12.9%	8.7%				
CCCNCC(O)COc1ccccc1C(=O)CCc1ccccc1 (centres unmarked) [Propafenone]						76.8 % DMSO	58.7 % DMSO	29.5 % DMSO	activation at 0.4 µM [1, 7]: -15.2%; activation at 2 µM [1, 8]: -3.3%
CC(=O)OCC[N+](C)(C)C [Acetylcholine]						87.6 % DMSO	92.6 % DMSO	87.0 % DMSO	activation at 2 µM [1, 9]: -4.4%; activation at 10 µM [1, 10]: -7.7%
C[C@]12Cc3c[nH]nc3C[C@@H]1CC[C@@H]1[C@@H]2CC[C@@]2(C)[C@H]1CC[C@]2(C)O [Stanozolol]									viability at 0.1 µM (expanded OPCs; read-out: 0.1 µM (% DMSO), alamarBlue viability, NCC library compound at 0.1 µM, sheet "All Tox data"): 91.1%; viability at 1 µM (expanded OPCs; read-out: 1 µM (% DMSO), alamarBlue viability, NCC library compound at 1 µM, sheet "All Tox data"): 92.6%; viability at 10 µM (expanded OPCs; read-out: 10 µM (% DMSO), alamarBlue viability, NCC library compound at 10 µM, sheet "All Tox data"): 61.7%; activation at 0.4 µM [1, 7]: 6.5%; activation at 2 µM [1, 8]: 42.2%
COc1cc(C)c(/C=C/C(C)=C/C=C/C(C)=C/C(=O)O)c(C)c1C [Acitretin]						101.2 % DMSO	141.3 % DMSO	148.0 % DMSO	activation at 2 µM [1, 9]: 68.7%; activation at 10 µM [1, 10]: 51.4%
Cc1onc(-c2ccccc2)c1C(=O)N[C@@H]1C(=O)N2[C@@H]1SC(C)(C)[C@@H]2C(=O)O [Oxacillin]						96.9 % DMSO	96.8 % DMSO	93.4 % DMSO	activation at 2 µM [1, 9]: -14.9%; activation at 10 µM [1, 10]: -26.1%
C[C@@H]1C[C@H]2[C@@H]3C[C@H](F)C4=CC(=O)C(Cl)=C[C@]4(C)[C@@]3(F)[C@@H](O)C[C@]2(C)[C@@]1(O)C(=O)CO.O [Halometasone hydrate]									0.1 µM (% DMSO) (expanded OPCs; sheet All Tox data): 103.7 % DMSO; 1 µM (% DMSO) (expanded OPCs; sheet All Tox data): 109.3 % DMSO; 10 µM (% DMSO) (expanded OPCs; sheet All Tox data): 105.9 % DMSO; OL differentiation, 2 uM (% Quet) ([1]; 2 uM test compound, relative to quetiapine, sheet "All OLga data"): -42.5 % Quet; OL differentiation, 10 uM (% Quet) ([1]; 10 uM test compound, relative to quetiapine, sheet "All OLga data"): -89.7 % Quet
COc1cc2nc(N3CCN(C(=O)C4CCCO4)CC3)nc(N)c2cc1OC (centres unmarked) [Terazosin]	81.1%	80.8%	78.7%	-2.4%	8.7%	93.3 % DMSO	94.6 % DMSO	74.1 % DMSO	activation at 2 µM [1, 9]: -10.8%; activation at 10 µM [1, 10]: -37.2%
NS(=O)(=O)c1cc(C(=O)O)c(NCc2ccco2)cc1Cl [Furosemide]						87.5 % DMSO	91.0 % DMSO	97.3 % DMSO	activation at 2 µM [1, 8]: 6%; activation at 10 µM [1, 11]: -6%
CCOC(=O)c1ccc(OC(=O)CCCCCNC(=N)N)cc1 [Gabexate]	105%	109%	123%	12.6%	7.2%				
Cn1c(=O)c2[nH]cnc2n(C)c1=O [Theophylline]						91.7 % DMSO	95.8 % DMSO	88.9 % DMSO	activation at 2 µM [1, 8]: -12%; activation at 10 µM [1, 11]: 6.9%
